Laboratory results: US6921667B2, “Methods for direct detection of individual methotrexate metabolites” (Prometheus Laboratories, Inc., priority 2003, dated 2005)

Experiment: Red blood cell methotrexate polyglutamate concentrations in patients on low-dose methotrexate, by HPLC fluorometry with post-column photo-oxidation
Format: in vivo, human
Conditions: single patient on 17.5 mg weekly methotrexate for at least 3 months; FIG. 4A; packed red blood cells
Experimental: The liquid chromatograph was an Agilent 1100 HPLC chemstation system composed of a quaternary pump, a system controller, an autoinjector, a sample cooler kept at 4° C., and a fluorometer. […] Methotrexate polyglutamates were detected with post-column derivatization using a photochemical reactor unit (Aura Industries; New York, N.Y.) equipped with an elongated 254 nm low pressure mercury ultraviolet lamp and containing a 1/16″ outer diameter TEFLON™ tubing (internal diameter 0.25 mm) assembled as a knitted coil and connected on-line between the analytical column and fluorometer. The knitted coil was extended lengthwise through the photochemical reactor unit; all but a portion of the elongated lamp was masked with foil such that only a segment of the knitted coil was irradiated. In particular, the lamp was masked such that only 1 meter of the coil was irradiated with the lamp, which at a flow rate of 1 ml/min corresponded to 3 seconds irradiation. Methotrexate polyglutamate photolytic products were measured at an excitation wavelength of 274 nm and an emission wavelength of 464 nm, unless otherwise indicated. The retention times described herein were measured from time of injection to time of detection at the post-reactor unit fluorometer. […]
Methotrexate polyglutamate photolytic products were analyzed at an excitation wavelength of 274 nm and an emission wavelength of 464 nm. […]

concentration in red blood cell sample: 27 nM
Structure (SMILES): CN(Cc1cnc2nc(N)nc(N)c2n1)c1ccc(C(=O)N[C@@H](CCC(=O)O)C(=O)O)cc1 [MTXPG1, 4-amino-10-methylpteroylglutamic acid]
